pIC50: −log10 of the molar value. Numbered stars: 1 amine (or outer) side, 2 acyl side, 3 side chain; on linkers, the order of the positions; unused ones are H or OH. Bridge positions count the residues as written; N and C are the ends. Square brackets hold non-standard residues; d marks the D form. Peptide text beside a SMILES is read from it. Trp(βS-Me,7-OMe) = COc1cccc2c([C@H](C)[C@H](N)C(=O)O)c[nH]c12; X49 = C[N+](C)(C)CC(=O)N[C@H]1C[C@H](C(=O)[*:2])N([*:1])C1; Trp(1-CH2COOH) = N[C@@H](Cc1cn(CC(=O)O)c2ccccc12)C(=O)O; X50 = C[C@@H](c1ccc(C(=O)O)cc1)[C@H](N[*:1])C(=O)[*:2]; Phe(4-SO2NH2) = N[C@@H](Cc1ccc(S(N)(=O)=O)cc1)C(=O)O; Trp(7-CN) = N#Cc1cccc2c(C[C@H](N)C(=O)O)c[nH]c12; Trp(7-Cl) = N[C@@H](Cc1c[nH]c2c(Cl)cccc12)C(=O)O; X43 = O=C(O)[C@H]1CC[C@@H](C(=O)[*:2])N([*:1])C1; Phe(3-CONH2) = NC(=O)c1cccc(C[C@H](N)C(=O)O)c1; Phe(4-CONH2) = NC(=O)c1ccc(C[C@H](N)C(=O)O)cc1; Phe(4-COOH) = N[C@@H](Cc1ccc(C(=O)O)cc1)C(=O)O; Trp(7-aza) = N[C@@H](Cc1c[nH]c2ncccc12)C(=O)O; Ala(thiazol-5-yl) = N[C@@H](Cc1cncs1)C(=O)O; Pip(5R-OH) = O=C(O)[C@@H]1CC[C@@H](O)CN1; X1 = O=C([C@@H]1CC[C@H](N[*:1])C1)[*:2]; Pro(4R-NH2) = N[C@H]1CN[C@H](C(=O)O)C1; Pip(4-aza) = O=C(O)[C@@H]1CNCCN1; 4Pal = N[C@@H](Cc1ccncc1)C(=O)O; NMeE = CN[C@@H](CCC(=O)O)C(=O)O; dHyp = O=C(O)[C@H]1C[C@H](O)CN1; dNMeE = CN[C@H](CCC(=O)O)C(=O)O; Cit = NC(=O)NCCC[C@H](N)C(=O)O; hLeu = CC(C)CC[C@H](N)C(=O)O; NMeS = CN[C@@H](CO)C(=O)O; αMeS = C[C@](N)(CO)C(=O)O; Nle = CCCC[C@H](N)C(=O)O; Sar = CNCC(=O)O

Among the data in patent US20240287138A1, “CYCLIC PEPTIDES FOR INHIBITING TNF RECEPTOR 1 ACTIVITY” (Merck Sharp & Dohme LLC, priority 2023, published 2024) are IC50 values, retold here.

The experiment deals with T1, TNFα-induced NF-κB signal transduction pathway (TNFR1 signaling) in THP-1 cells (Homo sapiens, UniProt P19438).
T1 sequence (P19438 30-455): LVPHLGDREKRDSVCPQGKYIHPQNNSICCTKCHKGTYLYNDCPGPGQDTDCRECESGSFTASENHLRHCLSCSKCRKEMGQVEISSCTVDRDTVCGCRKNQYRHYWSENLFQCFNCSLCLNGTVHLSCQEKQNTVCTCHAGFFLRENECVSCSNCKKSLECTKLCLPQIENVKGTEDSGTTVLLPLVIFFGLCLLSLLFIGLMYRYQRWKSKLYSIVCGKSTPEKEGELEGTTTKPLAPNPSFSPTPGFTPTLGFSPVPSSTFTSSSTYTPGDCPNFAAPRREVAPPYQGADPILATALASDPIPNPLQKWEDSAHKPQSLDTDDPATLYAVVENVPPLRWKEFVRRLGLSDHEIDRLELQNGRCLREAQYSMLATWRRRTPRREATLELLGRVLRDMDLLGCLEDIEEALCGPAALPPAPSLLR
Put plainly: THP-1 Lucia NF-κB reporter cell assay, inhibition of TNFα-induced NF-κB signaling. The experiment is classed as cell-based. As to conditions: THP-1 NF-κB Lucia reporter cells, 10 ng/mL TNFα, 16-18 h, secreted luciferase; read-out: THP-1 IC50. On the procedure:
C. Procedure for THP-1 Lucia NF-κB cells
The inhibition of TNFα-induced NF-κB signal transduction pathways was evaluated in THP-1 cells. THP-1 cells harboring NF-κB-inducible Lucia™ reporter gene (InvivoGen, cat. #thp1-nfkb) designed for monitoring NF-κB signal transduction pathway was employed to assess the inhibitory effect macrocyclic peptides on TNFR1 signaling. The cells were cultured in media containing RPMI 1640, 2 mM L-glutamine, 25 mM HEPES, 10% heat-inactivated fetal bovine serum with appropriate selection antibiotics. Assays were performed in media that was devoid of selection antibiotics. For profiling, 125 nL of peptides in DMSO (10 mM) were dispensed into Falcon® 384-well Optilux white/clear flat bottom TC-treated microtest microplate (Corning, cat. #353963) using Echo® 555. […] A suspension of 1 million cells/mL was dispensed at 20 μL/well in a 384-well plate to a density of 20,000 cells/well and pre-incubated with peptides at 37° C. for 1 h. Subsequently, 5 μL of TNF containing media (recombinant human TNFα; R&D Systems USA, cat. #210-TA-005/CF) or TNF-free media (for controls) was added to the wells. The final concentration of TNFα in the assay in 10 ng/mL. After o.n. incubation at 37° C. (16-18 h), 5 μL of supernatant was aspirated and transferred to a 384-well microplate (PerkinElmer, cat. #6007680) for measurement of secreted luciferase activity with 25 μL of QUANTI-Luc™ luminescence assay reagent (InvivoGen, cat. #rep-qlc1) in each well. The luminescence was measured in EnVision® Multimode Plate Reader (PerkinElmer). Dose response curves were analyzed using a 4-parameter logistic model to calculate IC50 values, reported in Table 2, using TIBCO® Spotfire® software employing appropriate Minimum and Maximum controls.
For orientation: pIC50 means the negative decadic logarithm of the IC50, by convention in mol/L. On to `CCCC[C@@H]1NC(=O)[C@@H]2CC[C@@H](C2)NC(=O)[C@H]([C@@H](C)c2c[nH]c3c(OC)cccc23)NC(=O)CN(C)C(=O)[C@H](Cc2ccc(C(N)=O)cc2)NC(=O)[C@H](Cc2ccc(C(N)=O)cc2)NC(=O)[C@](C)(CO)NC(=O)[C@H](Cc2c[nH]c3c(C#N)cccc23)NC(=O)[C@H](Cc2ccc(C(=O)O)cc2)NC(=O)[C@H](CC(N)=O)NC(=O)[C@H]2C[C@H](O)CN2C(=O)[C@H](Cc2c[nH]c3ncccc23)NC(=O)[C@H](CCCNC(N)=O)NC(=O)[C@H]([C@@H](C)c2ccc(C(=O)O)cc2)NC1=O` [SEQ ID NO. 118] (cyclo([Cit][Trp(7-aza)][dHyp]N[Phe(4-COOH)][Trp(7-CN)][αMeS][Phe(4-CONH2)][Phe(4-CONH2)][Sar][Trp(βS-Me,7-OMe)][X1][Nle][X50])), for which the pIC50 was 8.55.
The result for `CCCC[C@@H]1NC(=O)[C@@H]2CC[C@@H](C2)NC(=O)[C@H]([C@@H](C)c2c[nH]c3c(OC)cccc23)NC(=O)CN(C)C(=O)[C@H](Cc2ccc(O)cc2)NC(=O)[C@H](Cc2ccc(C(=O)O)cc2)NC(=O)[C@](C)(CO)NC(=O)[C@H](Cc2c[nH]c3c(Cl)cccc23)NC(=O)[C@H](Cc2ccncc2)NC(=O)[C@H](CC(N)=O)NC(=O)[C@H](CCC(=O)O)N(C)C(=O)[C@H](Cc2c[nH]c3ccccc23)NC(=O)[C@@H]2CC[C@H](C(=O)O)CN2C(=O)[C@H](Cc2ccncc2)NC1=O` [SEQ ID NO. 120] (cyclo([4Pal][Trp(7-Cl)][αMeS][Phe(4-COOH)]Y[Sar][Trp(βS-Me,7-OMe)][X1][Nle][4Pal][X43]W[NMeE]N)) reads 8.85.
In the case of `CCCC[C@@H]1NC(=O)CSC[C@@H](C(N)=O)NC(=O)[C@H]([C@@H](C)c2c[nH]c3c(OC)cccc23)NC(=O)CN(C)C(=O)[C@H](Cc2ccc(O)cc2)NC(=O)[C@H](Cc2ccc(C(=O)O)cc2)NC(=O)[C@](C)(CO)NC(=O)[C@H](Cc2c[nH]c3c(Cl)cccc23)NC(=O)[C@H](Cc2ccncc2)NC(=O)[C@H](CC(N)=O)NC(=O)[C@H](CCC(=O)O)N(C)C(=O)[C@H](Cc2c[nH]c3ncccc23)NC(=O)[C@@H]2C[C@@H](N)CN2C(=O)[C@H](Cc2ccncc2)NC1=O` [SEQ ID NO. 125] ({CH2CO}-[Nle][4Pal][Pro(4R-NH2)][Trp(7-aza)][NMeE]N[4Pal][Trp(7-Cl)][αMeS][Phe(4-COOH)]Y[Sar][Trp(βS-Me,7-OMe)]C-NH2; thioether N-14), the negative-log IC50 (pIC50) was 8.39.
Turning to `CCCC[C@@H]1NC(=O)[C@@H]2CC[C@@H](C2)NC(=O)[C@H]([C@@H](C)c2c[nH]c3c(OC)cccc23)NC(=O)CN(C)C(=O)[C@H](Cc2ccc(C(=O)O)cc2)NC(=O)[C@H](Cc2ccc(C(N)=O)cc2)NC(=O)[C@](C)(CO)NC(=O)[C@H](Cc2c[nH]c3c(C#N)cccc23)NC(=O)[C@H](Cc2ccc(S(N)(=O)=O)cc2)NC(=O)[C@H](CC(N)=O)NC(=O)[C@@H](CCC(=O)O)N(C)C(=O)[C@H](Cc2c[nH]c3ncccc23)NC(=O)[C@@H]2CC[C@@H](O)CN2C(=O)[C@H](Cc2ccncc2)NC1=O` [SEQ ID NO. 133] (cyclo([4Pal][Pip(5R-OH)][Trp(7-aza)][dNMeE]N[Phe(4-SO2NH2)][Trp(7-CN)][αMeS][Phe(4-CONH2)][Phe(4-COOH)][Sar][Trp(βS-Me,7-OMe)][X1][Nle])), the negative-log IC50 (pIC50) is 8.85.
As to `COc1cccc2c([C@H](C)[C@@H]3NC(=O)CN(C)C(=O)[C@H](Cc4ccc(O)cc4)NC(=O)[C@H](Cc4ccc(C(=O)O)cc4)NC(=O)[C@](C)(CO)NC(=O)[C@H](Cc4c[nH]c5c(Cl)cccc45)NC(=O)[C@H](Cc4ccncc4)NC(=O)[C@H](CC(N)=O)NC(=O)[C@H](CCC(=O)O)N(C)C(=O)[C@H](Cc4c[nH]c5ccccc45)NC(=O)[C@@H]4CNCCN4C(=O)[C@H](Cc4ccncc4)NC(=O)[C@H](CCC(C)C)NC(=O)[C@@H]4CC[C@@H](C4)NC3=O)c[nH]c12` [SEQ ID NO. 137] (cyclo([4Pal][Trp(7-Cl)][αMeS][Phe(4-COOH)]Y[Sar][Trp(βS-Me,7-OMe)][X1][hLeu][4Pal][Pip(4-aza)]W[NMeE]N)), the pIC50 is 8.89.
The same measure for `CCCC[C@@H]1NC(=O)[C@@H]2CC[C@@H](C2)NC(=O)[C@H]([C@@H](C)c2c[nH]c3c(OC)cccc23)NC(=O)CN(C)C(=O)[C@H](Cc2ccc(O)cc2)NC(=O)[C@H](Cc2ccc(C(=O)O)cc2)NC(=O)[C@](C)(CO)NC(=O)[C@H](Cc2c[nH]c3c(Cl)cccc23)NC(=O)[C@H](Cc2cncs2)NC(=O)[C@H](CC(N)=O)NC(=O)[C@H](CCC(=O)O)N(C)C(=O)[C@H](Cc2c[nH]c3ccccc23)NC(=O)[C@@H]2CNCCN2C(=O)[C@H](Cc2ccncc2)NC1=O` [SEQ ID NO. 138] (cyclo([4Pal][Pip(4-aza)]W[NMeE]N[Ala(thiazol-5-yl)][Trp(7-Cl)][αMeS][Phe(4-COOH)]Y[Sar][Trp(βS-Me,7-OMe)][X1][Nle])): 8.70.
For `CCCC[C@@H]1NC(=O)[C@@H]2CC[C@@H](C2)NC(=O)[C@H]([C@@H](C)c2c[nH]c3c(OC)cccc23)NC(=O)CN(C)C(=O)[C@H](Cc2ccc(C(=O)O)cc2)NC(=O)[C@H](Cc2ccc(C(N)=O)cc2)NC(=O)[C@](C)(CO)NC(=O)[C@H](Cc2c[nH]c3c(C#N)cccc23)NC(=O)[C@H](Cc2ccc(C(=O)O)cc2)NC(=O)[C@H](CC(N)=O)NC(=O)[C@H]2C[C@H](NC(=O)C[N+](C)(C)C)CN2C(=O)[C@H](Cc2cn(CC(=O)O)c3ccccc23)NC(=O)[C@@H]2CNCCN2C(=O)[C@H](Cc2ccncc2)NC1=O` [SEQ ID NO. 139] (cyclo([4Pal][Pip(4-aza)][Trp(1-CH2COOH)][X49]N[Phe(4-COOH)][Trp(7-CN)][αMeS][Phe(4-CONH2)][Phe(4-COOH)][Sar][Trp(βS-Me,7-OMe)][X1][Nle])), the pIC50 is 9.00.
`CCCC[C@@H]1NC(=O)CSC[C@@H](C(N)=O)NC(=O)[C@H]([C@@H](C)c2c[nH]c3c(OC)cccc23)NC(=O)CN(C)C(=O)[C@H](Cc2cccc(C(N)=O)c2)NC(=O)[C@H](Cc2ccc(C(=O)O)cc2)NC(=O)[C@](C)(CO)NC(=O)[C@H](Cc2c[nH]c3c(Cl)cccc23)NC(=O)[C@H](Cc2ccncc2)NC(=O)[C@H](CC(N)=O)NC(=O)[C@H](CCC(=O)O)N(C)C(=O)[C@H](Cc2c[nH]c3ccccc23)NC(=O)[C@H](CO)N(C)C(=O)[C@H](Cc2ccncc2)NC1=O` [SEQ ID NO. 270] ({CH2CO}-[Nle][4Pal][NMeS]W[NMeE]N[4Pal][Trp(7-Cl)][αMeS][Phe(4-COOH)][Phe(3-CONH2)][Sar][Trp(βS-Me,7-OMe)]C-NH2; thioether N-14): the pIC50 was 8.66.
